The record followed here is US11718610B2, “Compounds containing benzosultam” (MEDSHINE DISCOVERY INC., priority 2020, dated 2023).

For one data set, the system named is HCT116 cells. Kind of data set: HCT116 (Kras G13D) antiproliferative activity experiment (CellTiter Glo). The settings on record: Homo sapiens, HCT-116, 72 h, cultured 3 days. The class given is cell-based. The procedure: Experimental Embodiment 2: HCT116 (Kras^G13D) Antiproliferative Activity Experiment
(1) cell culture medium: 89% Mc′Coy 5A, 10% fetal bovine serum and 1% penicillin-streptomycin;
(2) culture medium and trypsin were preheated in a 37° C. water bath;
(3) the culture medium was removed in the cell culture flask and washed once with 1 mL of trypsin;
(4) 1 mL of trypsin was added to the cell culture flask, and the cell culture flask was shaken gently, and the trypsin was removed after full contact with the cell, and then the culture flask was placed into a 37° C. incubator containing 5% CO2 for about 1 minute;
(5) the cells were resuspended with 2 mL of cell culture medium, and about 0.01 mL of cell suspension was taken out for counting;
(6) the cell suspension was diluted with culture medium to a cell density required for plating of 2.5×10^4 cells per mL;
(7) 100 μL of culture medium was added to each well around the cell plate, and 80 μL of cell suspension was added to the other wells, and placed in a 37° C. incubator containing 5% CO2 for overnight culture.
(8) The required cell amount and culture medium were taken based on the new T75 culture flask for continued culture.
(1) the compound to be tested was prepared into […] solution with DMSO;
(2) 9 concentration gradients and 3-fold dilutions were performed on the compounds, that is, a double-duplicate experiment was set from 6 mmol to 2.7 μmol, and 78 μL of culture medium was added to the middle plate, and then 2 μL of gradient diluted compound per well was transferred to the middle plate according to the corresponding position, and after mixing, 20 μL per well was transferred to the cell plate, and the final concentration of the compound transferred to the cell plate was 30 μmol to 13.7 nmol. The cell plate was placed in a carbon dioxide incubator and cultured for another 3 days.
(1) CTG was added and the plate was read: 20 μL of CellTiter Glo was added to each well of the cell plate, and the cell plate was shaken in the dark for 10 min;
(2) plates were read on Victor Nivo.
The equation (Sample-Min)/(Max-Min)*100% was used to convert the original data into inhibition rate, and the IC50 value could be obtained by curve fitting with four parameters (obtained by “log (inhibitor) vs. response—variable slope” mode in GraphPad Prism).

Data set [1] deals with ERK phosphorylation in Calu-6 cells. Put plainly: Calu-6 (Kras Q61K) ERK phosphorylation inhibition experiment (HTRF). The class given is cell-based, human. The settings on record: Homo sapiens, Calu-6, 1 h, 1 hour incubation with compound. The method, then:
Experimental Embodiment 5: Calu-6 (Kras^Q61K) ERK Phosphorylation Inhibition Experiment
1) the cells were resuscitated and cultured to logarithmic growth phase, digested with trypsin, seeded in 96-well plates with 30000 cells per well, and incubated overnight in an incubator.
2) 1 μL of gradient compound dissolved with DMSO was added to a 96-well plate and placed back into an incubator to incubate for 1 hour.
3) The cell plates were removed out, and the culture medium was poured off, and 50 μL of cell lysate (with 1% blocking peptide) was added to each well.
4) The lysate plate was mixed at 500 rpm and incubated and lysed at room temperature for 30 minutes.
5) The antibody mixture in the kit was prepared at a ratio of 1:1:38.
6) 16 μL of cell lysate was transferred to the HTRF plate per well, then the 4 μL of the configured antibody mixture was added thereto.
7) After incubation overnight, the plate was read with Envision, and the fitted curve was obtained according to the ratio (the ratio of fluorescence intensity of […]) and the EC50 was calculated according to the four-parameter fitting formula Y=Bottom+(Top−Bottom)/(1+10^((Log EC50−X)*HillSlope)) of Graphpad.

Data set [2] is described as follows: Pharmacokinetics of single intravenous and oral administration in mice. The settings on record: for Cmax / Tmax: 50 mg/kg/day, single oral administration; for Cmax: read-out: Maximum plasma drug concentration Cmax; for Vd / clearance / half-life: single intravenous administration, 0.5 mg/kg/day; for Vd: read-out: Apparent distribution volume Vdss; for clearance: read-out: Clearance rate Cl; for half-life: read-out: Half-life (T1/2) (converted); for Tmax: read-out: Peak time Tmax. In kind it is in vivo. The procedure: Experimental Embodiment 6: Pharmacokinetics Study of Single Intravenous and Oral Administration in Mice and Dogs
This experiment was aimed to study the pharmacokinetics of the test compound in mice and dogs in vivo after a single oral administration of the compound.
After intravenous or oral administration, blood samples were collected and the actual blood collection time was recorded. After the blood sample was collected, the sample was immediately transferred to a labeled centrifuge tube containing K2-EDTA, and then the plasma was taken after centrifugation. The plasma was transferred to a precooled centrifuge tube, quickly frozen in dry ice, and stored in an ultra-low temperature refrigerator at −70±10° C. until LC-MS/MS analysis.
Pharmacokinetic software was used to process the plasma drug concentration data of the compound with […] model. The peak concentration (Cmax) and peak time (Tmax), as well as the end time of quantification, were obtained directly from the plasma drug concentration-time graph. The following pharmacokinetic parameters were calculated by logarithmic linear trapezoidal method: half-life (T1/2), apparent distribution volume (Vdss) and clearance rate (Cl), and the area under the time-plasma concentration curve from 0 to the end time point (AUC0-last).

In data set [3] the test system is human lung cancer Calu-6 cell subcutaneous xenograft tumor. Kind of data set: In vivo pharmacodynamic experiment, BALB/c nude mouse model of subcutaneous xenograft tumors of human lung cancer Calu-6 cells. The settings on record: 50 mg/kg oral (PO) once a day (QD), Calu-6 xenograft in BALB/c nude mice, vs solvent control; P<0.01. The method, then:
Experimental Embodiment 7: In Vivo Pharmacodynamic Experiment of the BALB/c Nude Mouse Model of Subcutaneous Xenograft Tumors of Human Lung Cancer Calu-6 Cells
Age of arrival: 6 to 8 weeks old
Cells: Calu-6 cells of human lung cancer were cultured in vitro, and 0.2 Units/mL bovine insulin, 10% fetal bovine serum were added to EMEM culture medium in a 37° C. and 5% CO2 incubator for culture. Conventional digestion with trypsin-EDTA was performed twice a week for passage. When the cell saturation was 80%-90% and the number of the cells reached the requirement, and the cells were collected, counted, and seeded.
Cell inoculation: 0.2 mL of Calu-6 cell (mixed in a ratio of 1:1 with matrix gel) was subcutaneously inoculated on the right back of each mouse, and group administration was started when the average tumor volume reached […],
Tumor diameters were measured with vernier calipers twice a week. The calculation formula of tumor volume was: V=0.5a×b^2, and a and b represent the long and short diameters of the tumor, respectively.
The tumor inhibition efficacy of the compounds was evaluated by TGI (%) or relative tumor proliferation rate T/C (%). Relative tumor proliferation rate T/C (%)=TRTV/CRTV×100% (TRTV: RTV in the treatment group; CRTV: RTV in the negative control group). The relative tumor volume (RTV) was calculated according to the results of tumor measurement, and the formula was RTV=Vt/V0, wherein V0 was the tumor volume measured at the time of group administration (i.e., D0), and Vt was the tumor volume measured at a certain measurement, and TRTV and CRTV were taken on the same day.
TGI (%), reflecting the tumor growth inhibition rate. TGI (%)=[1−(average tumor volume at the end of administration in a treatment group−average tumor volume at the beginning of administration in this treatment group)/(average tumor volume at the end of treatment in a solvent control group−average tumor volume at the beginning of treatment in this solvent control group)]×100%.
Statistical analysis was based on the data of RTV at the end of the experiment, and SPSS software was used for analysis. One-way ANOVA was used for comparison between two groups, and the variance was uneven (there was significant difference in F value), and Games-Howell method was used to test, p<0.05 was considered a significant difference.
For orientation: In xenograft studies the graft and the host belong to different species.

Like-named read-outs stand apart in the source and are kept apart here.

For `COc1cc(F)cc([C@@H](CO)NC(=O)[C@@H](C)N2Cc3ccc(-c4nc(NC5CCOCC5)ncc4Br)cc3S2(=O)=O)c1` [Compound 3], it took 138 nM to reach half-maximal inhibition in the data set with HCT116 cells (IC50). Further, the IC50 (as a rule, the concentration that inhibits the measured activity by half) in data set [1] was found to be 3.98 nM. Besides, in data set [2] (mouse, plasma, po), the Cmax was found to be 156 µM. In data set [2] (mouse, plasma), the Vd was determined as 0.656 L/kg, the clearance was 19 mL/min/kg, the half-life is 2.18 h and the Tmax (usually the time at which the peak concentration occurs) is 1 h. Also, the “TGI (tumor growth inhibition rate)” value in data set [3] is on record as 110%.

`COc1cc(F)cc([C@@H](CO)NC(=O)[C@@H](C)N2Cc3ccc(-c4nc(N[C@H]5CCOC[C@H]5F)ncc4Cl)cc3S2(=O)=O)c1` [Compound 11]: inhibition in the data set on HCT116 cells was half-maximal at 123 nM (IC50). In data set [1], the IC50 was determined as 6.51 nM. Besides, the Cmax in data set [2] (mouse, plasma, po) is 157 µM. In data set [2] (mouse, plasma), the Vd is 0.422 L/kg, the clearance was 13.8 mL/min/kg, the half-life is 1.17 h and the time of peak concentration (Tmax) is 0.75 h. The “TGI (tumor growth inhibition rate)” value in data set [3] worked out at 109%.

In turn, `[2H]C1([2H])CC(Nc2ncc(Cl)c(-c3ccc4c(c3)S(=O)(=O)N([C@H](C)C(=O)N[C@H](CO)c3cc(F)cc(OC)c3)C4)n2)CC([2H])([2H])O1` [Compound 9] registered an IC50 in the data set on HCT116 cells of 105 nM. In addition, the IC50 in data set [1] was 3.99 nM. In data set [2] (mouse, plasma, po), the Cmax was 124 µM. Further, in data set [2] (mouse, plasma), the Vd was 0.297 L/kg, the clearance turned out to be 7.03 mL/min/kg, the half-life is 1.26 h and the Tmax was found to be 1.5 h. In addition, the “TGI (tumor growth inhibition rate)” value in data set [3] was found to be 108%.

For `COc1cc(F)cc([C@@H](CO)NC(=O)[C@@H](C)N2Cc3ccc(-c4nc(NC5CCOCC5)ncc4Cl)cc3S2(=O)=O)c1` [Compound 1], in the data set with HCT116 cells, the IC50 stood at 103 nM. Besides, the IC50 in data set [1] turned out to be 5.88 nM. Also, in data set [2] (mouse, plasma), the Vd stood at 0.4 L/kg, the clearance stood at 10.3 mL/min/kg, the half-life was 1.16 h and the Tmax was 1 h. In data set [2], the Cmax was 73.4 µM. For the same compound, the “TGI (tumor growth inhibition rate)” value in data set [3] is on record as 107%.
